# Read-outs that look alike come from different tables or passages of the source.
# How the values were obtained:
# human 5HT1F receptor = target: T1, human 5HT1F receptor (Homo sapiens, UniProt P30939); assay: [3H]serotonin competition binding, 5HT1F receptor
# T1 construct: host or cells: LM(tk-) clonal cell line L-5-HT1F
# T1 sequence (P30939 1-366): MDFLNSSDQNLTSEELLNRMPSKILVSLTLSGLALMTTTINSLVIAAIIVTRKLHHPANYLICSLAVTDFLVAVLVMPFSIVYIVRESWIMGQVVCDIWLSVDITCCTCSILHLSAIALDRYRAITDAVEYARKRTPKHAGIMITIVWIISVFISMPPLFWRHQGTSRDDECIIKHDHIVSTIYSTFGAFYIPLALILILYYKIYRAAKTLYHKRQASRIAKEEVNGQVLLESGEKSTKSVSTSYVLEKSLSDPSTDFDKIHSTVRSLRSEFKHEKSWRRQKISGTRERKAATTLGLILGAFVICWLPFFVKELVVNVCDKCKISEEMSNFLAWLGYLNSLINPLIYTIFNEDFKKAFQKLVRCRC
# Experimental: (§1) 5HT1Dα, 5HT1Dβ, 5HT1E, 5HT1F Receptors: The cell lysates of LM(tk−) clonal cell line stably transfected with the genes encoding each of these 5HT receptor-subtypes were prepared as described above. The cell line for the 5HT1Dα receptor, designated as Ltk-8-30-84, was deposited on Apr. […] The cell for the 5HT1Dβ receptor, designated as Ltk-11, was deposited on Apr. […] The cell line for the 5HT1E receptor, designated 5 HT1E-7, was deposited on Nov. […] The cell line for the 5HT1F receptor, designated L-5-HT1F, was deposited on Dec. […] These preparations were suspended in 50 mM Tris-HCl buffer (pH 7.4 at 37° C.) containing 10 mM MgCl2, 0.2 mM EDTA, 10 μM pargyline, and 0.1% ascorbate.
# human 5HT1Dβ receptor = target: T2, human 5HT1Dβ receptor (Homo sapiens, UniProt P28222); assay: [3H]serotonin competition binding, 5HT1Dβ receptor
# T2 construct: host or cells: LM(tk-) clonal cell line Ltk-11
# T2 sequence (P28222 whole entry): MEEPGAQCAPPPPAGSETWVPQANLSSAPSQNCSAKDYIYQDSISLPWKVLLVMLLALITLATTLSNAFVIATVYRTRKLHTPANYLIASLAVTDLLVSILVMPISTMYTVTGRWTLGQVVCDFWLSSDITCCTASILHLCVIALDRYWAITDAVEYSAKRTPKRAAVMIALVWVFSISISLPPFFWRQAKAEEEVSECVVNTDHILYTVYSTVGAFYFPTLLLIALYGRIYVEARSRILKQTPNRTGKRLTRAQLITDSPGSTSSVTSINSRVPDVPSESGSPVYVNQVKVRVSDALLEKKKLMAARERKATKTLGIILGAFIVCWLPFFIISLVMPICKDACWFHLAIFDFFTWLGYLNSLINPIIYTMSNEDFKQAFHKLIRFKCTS
# Experimental: as §1
# human prostate tissue = assay: Antagonism of phenylephrine-induced contraction of human prostatic tissue; details: pA2, phenylephrine-induced contraction, dose-ratio method
# Experimental: An index of this efficacy can be obtained by determining the potency of α1 antagonists to antagonize the contraction of human prostatic tissue induced by an α1 agonist “in vitro”.
# Prostatic adenomas were obtained at the time of surgery from patients with symptomatic BPH. […] Isometric tension was measured with a Grass Instrument FT03 force transducer interfaced with a computer. Tissue strips were contracted with varying concentrations of phenylephrine after incubating for 20 minutes in the absence and presence of at least three different concentrations of antagonist. Dose-response curves for phenylephrine were constructed, and the antagonist potency (pA2) was estimated by the dose-ratio method.
# human 5HT2 receptor = target: T3, human 5HT2 receptor (Homo sapiens, UniProt P28223); assay: [3H]ketanserin competition binding, 5HT2 receptor; details: for Ki: read-out: Serotonin 5HT2 (pK1)
# T3 construct: host or cells: COS-7 (DEAE-dextran); the same paragraph also names a deposited line L-NGC-5HT2
# T3 sequence (P28223 whole entry): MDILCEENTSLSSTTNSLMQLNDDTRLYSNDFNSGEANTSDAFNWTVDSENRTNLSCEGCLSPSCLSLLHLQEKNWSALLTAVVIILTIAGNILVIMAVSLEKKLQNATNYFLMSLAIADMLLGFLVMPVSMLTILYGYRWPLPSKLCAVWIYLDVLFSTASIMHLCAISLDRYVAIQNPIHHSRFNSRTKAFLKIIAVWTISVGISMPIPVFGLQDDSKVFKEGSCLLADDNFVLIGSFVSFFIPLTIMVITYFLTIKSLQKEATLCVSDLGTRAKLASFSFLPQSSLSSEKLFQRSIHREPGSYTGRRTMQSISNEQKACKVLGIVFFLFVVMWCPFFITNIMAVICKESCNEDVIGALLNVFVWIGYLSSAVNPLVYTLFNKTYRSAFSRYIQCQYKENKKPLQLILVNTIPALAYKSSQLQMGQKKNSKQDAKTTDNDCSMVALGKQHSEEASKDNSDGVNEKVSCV
# Experimental: The coding sequence of the human 5HT2 receptor was obtained from a human brain cortex cDNA library, and cloned into the cloning site of pCEXV-3 eukaryotic expression vector. This construct was transfected into COS-7 cells by the DEAE-dextran method. […] Nonspecific binding was defined by the addition of 10 μM mianserin.
# [1] = target: T4, human α2C adrenergic receptor (Homo sapiens, UniProt P18825); assay: Competition binding, [3H]rauwolscine, α2C receptor; details: for Ki: read-out: Alpha-2 Adrenergic a2c (pK1) (converted)
# T4 sequence (P18825 1-462): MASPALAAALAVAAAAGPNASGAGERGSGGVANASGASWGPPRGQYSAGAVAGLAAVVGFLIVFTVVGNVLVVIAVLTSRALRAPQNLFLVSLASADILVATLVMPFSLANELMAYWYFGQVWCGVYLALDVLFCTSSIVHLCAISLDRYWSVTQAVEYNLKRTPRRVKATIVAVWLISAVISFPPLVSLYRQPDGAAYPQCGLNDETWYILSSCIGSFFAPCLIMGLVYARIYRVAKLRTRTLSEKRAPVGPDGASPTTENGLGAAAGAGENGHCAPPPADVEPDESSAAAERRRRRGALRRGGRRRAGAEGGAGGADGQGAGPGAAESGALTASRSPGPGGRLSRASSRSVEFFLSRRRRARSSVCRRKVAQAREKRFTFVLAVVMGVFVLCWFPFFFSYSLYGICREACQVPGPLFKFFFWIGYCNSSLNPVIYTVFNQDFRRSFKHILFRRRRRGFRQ
# Experimental: (§2) To determine the potency of α1 antagonists at the α2 receptors, LM(tk−) cell lines stably transfected with the genes encoding the α2A, α2B, and α2C receptors were used. The cell line expressing the α2A receptor is designated L-α2A, and was deposited on Nov. […] The cell line expressing the α2B receptor is designated L-NGC-α2B, and was deposited on Oct. […] The cell line expressing the α2C receptor is designated L-α2C, and was deposited on Nov. […] Cell lysates were prepared as described above (see Radioligand Binding Assays), and suspended in 25 mM glycylglycine buffer (pH 7.6 at room temperature).
# [2] = target: T5, human α2B adrenergic receptor (Homo sapiens, UniProt P18089); assay: Competition binding, [3H]rauwolscine, α2B receptor; details: for Ki: read-out: Alpha-2 Adrenergic a2b (pK1) (converted)
# T5 sequence (P18089 1-450): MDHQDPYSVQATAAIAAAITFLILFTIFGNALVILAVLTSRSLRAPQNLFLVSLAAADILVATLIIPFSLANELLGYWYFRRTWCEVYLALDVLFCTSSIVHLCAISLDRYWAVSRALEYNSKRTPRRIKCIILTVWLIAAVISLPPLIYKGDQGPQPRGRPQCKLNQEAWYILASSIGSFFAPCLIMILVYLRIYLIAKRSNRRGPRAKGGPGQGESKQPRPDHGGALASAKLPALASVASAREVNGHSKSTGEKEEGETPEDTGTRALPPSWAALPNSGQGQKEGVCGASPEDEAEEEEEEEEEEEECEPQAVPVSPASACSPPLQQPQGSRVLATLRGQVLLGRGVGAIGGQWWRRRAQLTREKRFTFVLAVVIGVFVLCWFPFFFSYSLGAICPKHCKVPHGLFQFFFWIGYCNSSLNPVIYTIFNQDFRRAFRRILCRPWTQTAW
# Experimental: as §2
# [3] = target: T6, human α1A adrenergic receptor (Homo sapiens, UniProt P25100); assay: Radioligand binding, [3H]prazosin, cloned human α1A adrenergic receptor
# T6 sequence (P25100 1-572): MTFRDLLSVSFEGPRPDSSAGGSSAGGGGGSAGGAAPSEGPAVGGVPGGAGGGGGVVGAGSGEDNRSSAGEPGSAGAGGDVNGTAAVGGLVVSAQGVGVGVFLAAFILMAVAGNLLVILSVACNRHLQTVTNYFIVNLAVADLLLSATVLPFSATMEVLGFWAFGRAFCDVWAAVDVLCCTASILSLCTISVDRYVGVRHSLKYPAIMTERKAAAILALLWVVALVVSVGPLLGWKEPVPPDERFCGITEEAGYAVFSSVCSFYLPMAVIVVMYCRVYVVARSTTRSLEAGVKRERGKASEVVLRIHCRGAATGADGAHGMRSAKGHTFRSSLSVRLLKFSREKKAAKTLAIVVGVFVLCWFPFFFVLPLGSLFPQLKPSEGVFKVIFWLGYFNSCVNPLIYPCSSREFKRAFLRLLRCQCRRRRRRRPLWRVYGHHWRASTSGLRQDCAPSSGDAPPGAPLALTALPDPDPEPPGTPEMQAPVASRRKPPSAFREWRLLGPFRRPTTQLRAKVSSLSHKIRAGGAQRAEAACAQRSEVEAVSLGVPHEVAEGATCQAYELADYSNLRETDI
# [4] = Table 2, cloned human receptor, read-out: Serotonin 5HT1F (pK1)
# [5] = Table 2, cloned human receptor, read-out: Serotonin 5HT1Db (pK1)
Compound,"Serotonin 5HT1F (pK1) (human 5HT1F receptor; Table 2, cloned human receptor)","Serotonin 5HT1Db (pK1) (human 5HT1Dβ receptor; Table 2, cloned human receptor)",Human Prostate (pA) (human prostate tissue),"Serotonin 5HT2 (pK1) (human 5HT2 receptor; Table 2, cloned human receptor)","Alpha-2 Adrenergic a2c (pK1) ([1]; Table 2, cloned human receptor)","Alpha-2 Adrenergic a2b (pK1) ([2]; Table 2, cloned human receptor)","Alpha-1 Adrenergic a1A (pK1) ([3]; Table 2, cloned human receptor)","Ki (human 5HT2 receptor; Table 2, cloned human receptor)","Ki ([1]; Table 2, cloned human receptor)","Ki ([2]; Table 2, cloned human receptor)",other results
"4-fluoro-4-(8-fluoro-1,3,4,5-tetrahydro-2H-pyrido[4,3-b]indol-2-yl)butyrophenone hydrochloride [Compound A-30360, reference compound]",<5.0,<6.0,8.72,,,,,,,,Serotonin 5HT2 (pK1) (human 5HT2 receptor): <8.0; Alpha-2 Adrenergic a2c (pK1) [1]: 6.23; Alpha-2 Adrenergic a2b (pK1) [2]: 6.37; Alpha-1 Adrenergic a1A (pK1) [3]: 7.49
"COc1ccccc1N1CCN(CCCNc2c(C)c(=O)n(C)c(=O)n2C)CC1 [5-Methyl-Urapidil, 5-methylurapidil, reference compound]",,6.82,8.38,<6.0,6.88,7.38,7.79,,,,
O=C(CCCN1CCC(NC(=O)c2ccccc2)CC1)c1ccc(Cl)cc1 [Compound 7],<5.0,<5.0,7.63,<6.0,6.09,6.07,6.82,,,,
"COC(=O)C1=C(C)NC(C)=C(C(=O)OCCCN2CCC(c3ccccc3)(c3ccccc3)CC2)C1c1ccc([N+](=O)[O-])cc1.Cl (stereo not shown) [Compound 8, 2,6-Dimethyl-4-(4-nitrophenyl)-1,4-dihydropyridine-3,5-dicarboxylic acid [3-(4,4-diphenylpiperidin-1-yl)propyl] ester methyl ester hydrochloride]",,,7.46,,5.77,6.12,6.52,> 100 nM,,,Ki (human 5HT1F receptor): > 10 µM; Ki (human 5HT1Dβ receptor): > 10000 nM
O=C(CCCN1CCC(NC(=O)c2ccccc2)CC1)c1ccccc1 [Compound 9],<5.0,<6.0,7.41,<7.0,5.90,5.69,6.12,,,,
"COc1ccc(CCNCC2CCc3ccccc3C2)cc1 (stereo not shown) [Compound 11, 2-[(4-Methoxyphenethyl)aminomethyl]-1,2,3,4-tetrahydronaphthalene]",,,6.64,,,,6.81,> 100 nM,120 nM,126 nM,Ki (human 5HT1F receptor): > 10 µM; Ki (human 5HT1Dβ receptor): > 1000 nM; Human Prostate (pA) (human prostate tissue; listed as SNAP 5036): low; Ki [3]: 155 nM
"O=C(NC1CCN(CCc2c[nH]c3ccccc23)CC1)c1ccccc1 [Indoramin, reference compound]",,,7.86,,,,,> 100 nM,6030 nM,1910 nM,Ki (human 5HT1F receptor; [4]): > 10 µM; Ki (human 5HT1Dβ receptor; [5]): > 1000 nM
"C=Cc1sc2ccc(Cl)c3c2c1CN(C)CC3 [SKF-104856, 7-Chloro-2-ethenyl-3,4,5,6-tetrahydro-4-methylthieno[4,3,2-ef][3]benzazepine, reference compound]",,,7.66,,,,,> 1000 nM,25.1 nM,3.24 nM,Ki (human 5HT1F receptor; [4]): > 0.1 µM; Ki (human 5HT1Dβ receptor; [5]): > 100 nM

# — US6602888B2, “Use of α1C specific compounds to treat benign prostatic hyperplasia” (Synaptic Pharmaceutical Corporation, priority 1992, dated 2003)
